Experimental data: patent publication US9359293B2, “Methods of treatment using modulators of SIRT2” (priority 2011, dated 2016)
pIC50: −log10 of the molar value. “Also recorded” adds a separate entry of the source.

Key:
Sirt1 = Sirt1 (Homo sapiens (Human), UniProt Q96EB6); assay: Sirtuin deacylase inhibition, HPLC assay (H3K9Ac peptide); type: biochemical; conditions: for pIC50: 1 μM sirtuin, 1 mM NAD, 30 min pre-incubation, H3K9Ac, 2 minutes; for inhibition of Sirt1 (in words): summary of Table 1
Sequence of Sirt1 (Q96EB6 whole entry): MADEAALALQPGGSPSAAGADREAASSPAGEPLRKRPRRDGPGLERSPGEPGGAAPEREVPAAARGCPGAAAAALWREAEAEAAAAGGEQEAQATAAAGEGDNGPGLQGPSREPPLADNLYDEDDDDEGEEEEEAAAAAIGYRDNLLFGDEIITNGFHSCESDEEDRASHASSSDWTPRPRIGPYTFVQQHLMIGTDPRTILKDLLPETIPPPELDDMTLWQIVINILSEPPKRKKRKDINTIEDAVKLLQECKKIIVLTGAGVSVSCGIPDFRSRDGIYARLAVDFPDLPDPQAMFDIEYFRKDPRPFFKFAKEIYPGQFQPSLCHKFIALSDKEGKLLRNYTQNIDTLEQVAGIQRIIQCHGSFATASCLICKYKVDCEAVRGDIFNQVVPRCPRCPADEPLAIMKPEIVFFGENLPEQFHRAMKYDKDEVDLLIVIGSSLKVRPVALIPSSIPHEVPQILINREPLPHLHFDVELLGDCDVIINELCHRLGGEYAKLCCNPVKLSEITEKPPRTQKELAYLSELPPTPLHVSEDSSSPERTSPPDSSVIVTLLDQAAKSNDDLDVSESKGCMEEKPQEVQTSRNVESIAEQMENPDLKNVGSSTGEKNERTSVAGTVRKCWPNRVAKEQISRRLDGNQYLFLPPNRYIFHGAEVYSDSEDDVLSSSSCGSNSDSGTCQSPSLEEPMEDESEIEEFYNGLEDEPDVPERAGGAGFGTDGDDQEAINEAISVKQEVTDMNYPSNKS
Method: (§1) Then 0.05 mM acyl peptides (H3K9Ac for Sirt1, Sirt2 and Sirt3; H3K9Su for Sirt5; H3K9Myr for Sirt6 and Sirt7) were added to initiate the reactions. The total reaction volume iwas […]. Then reactions were incubated at 37° C. for a certain amount of time (2 minutes for Sirt1, 10 minutes for Sirt2 and Sirt5, 30 minutes for Sirt3, and 1 hour for Sirt6 and Sirt7). The reactions were stopped by adding […] of an aqueous solution containing 200 mM HCl and 320 mM acetic acid. After centrifugation to remove precipitated proteins, the supernatant was analyzed by HPLC with a reverse phase C18 column (250×4.6 mm, 90 A, […], GraceVydac, Southborough, Mass.), with a linear gradient of 0% to 20% B for 10 minutes (1 mL/min). […] All reactions were done in duplicate.

Sirt2 = Sirt2 (Homo sapiens (Human), UniProt Q8IXJ6); assay: as above; type: biochemical; conditions: for pIC50: 1 μM sirtuin, 1 mM NAD, 30 min pre-incubation, H3K9Ac, 10 minutes
Sequence of Sirt2 (Q8IXJ6 whole entry): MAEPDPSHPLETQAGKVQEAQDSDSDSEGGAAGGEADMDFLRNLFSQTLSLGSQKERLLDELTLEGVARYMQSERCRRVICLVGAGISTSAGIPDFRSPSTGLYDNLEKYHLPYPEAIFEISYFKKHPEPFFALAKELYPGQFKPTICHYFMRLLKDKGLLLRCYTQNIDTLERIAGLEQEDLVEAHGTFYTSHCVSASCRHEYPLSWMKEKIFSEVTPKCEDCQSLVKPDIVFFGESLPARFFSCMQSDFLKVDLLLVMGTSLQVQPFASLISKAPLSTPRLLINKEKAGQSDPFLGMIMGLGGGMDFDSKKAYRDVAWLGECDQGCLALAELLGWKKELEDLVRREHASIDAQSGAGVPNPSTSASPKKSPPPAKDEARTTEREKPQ
Method: as §1

Sirt3 = Sirt3 (Homo sapiens (Human), UniProt Q9NTG7); assay: as above; type: biochemical; conditions: 1 μM sirtuin, 1 mM NAD, 30 min pre-incubation
Sequence of Sirt3 (Q9NTG7 whole entry): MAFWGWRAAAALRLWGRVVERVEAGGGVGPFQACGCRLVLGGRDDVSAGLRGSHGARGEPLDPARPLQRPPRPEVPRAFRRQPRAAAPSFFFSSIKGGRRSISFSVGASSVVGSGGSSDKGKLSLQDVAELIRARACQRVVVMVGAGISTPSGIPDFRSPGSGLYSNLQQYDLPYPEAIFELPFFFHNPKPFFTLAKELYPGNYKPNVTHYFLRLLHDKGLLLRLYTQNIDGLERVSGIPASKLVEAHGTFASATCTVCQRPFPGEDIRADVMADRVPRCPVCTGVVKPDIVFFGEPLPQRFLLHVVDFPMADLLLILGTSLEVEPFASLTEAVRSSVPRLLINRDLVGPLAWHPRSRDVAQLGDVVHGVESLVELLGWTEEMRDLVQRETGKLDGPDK
Method: as §1, with “Distinct selectivity profiles were found for each of the inhibitors studied. Different concentrations of TA, TB, TH, or TM were pre-incubated with 1 μM of the sirtuin and 1 mM NAD in 20 mM Tris-HCl buffer (pH 8.0) with 1 mM dithiothreitol (DTT) at 37° C. for 30 minutes. Then 0.05” for “Then 0.05”

Sirt5 = Sirt5 (Homo sapiens (Human), UniProt Q9NXA8); assay: Sirtuin deacylase inhibition, HPLC assay (H3K9Su peptide); type: biochemical; conditions: 1 μM sirtuin, 1 mM NAD, 30 min pre-incubation, 10 minutes
Sequence of Sirt5 (Q9NXA8 37-310): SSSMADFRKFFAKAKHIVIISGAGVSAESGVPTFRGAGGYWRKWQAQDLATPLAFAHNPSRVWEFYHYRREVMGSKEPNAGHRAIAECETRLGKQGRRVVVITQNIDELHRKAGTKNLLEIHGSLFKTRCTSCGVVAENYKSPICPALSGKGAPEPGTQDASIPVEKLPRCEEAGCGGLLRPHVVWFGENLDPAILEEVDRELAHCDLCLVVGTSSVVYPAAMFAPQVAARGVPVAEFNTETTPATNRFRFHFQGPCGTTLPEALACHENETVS
Method: as §1, with “Distinct selectivity profiles were found for each of the inhibitors studied. Different concentrations of TA, TB, TH, or TM were pre-incubated with 1 μM of the sirtuin and 1 mM NAD in 20 mM Tris-HCl buffer (pH 8.0) with 1 mM dithiothreitol (DTT) at 37° C. for 30 minutes. Then 0.05” for “Then 0.05”

Sirt6 = Sirt6 (Homo sapiens (Human), UniProt Q8N6T7); assay: Sirtuin deacylase inhibition, HPLC assay (H3K9Myr peptide); type: biochemical; conditions: 1 μM sirtuin, 1 mM NAD, 30 min pre-incubation, 1 hour
Sequence of Sirt6 (Q8N6T7 whole entry): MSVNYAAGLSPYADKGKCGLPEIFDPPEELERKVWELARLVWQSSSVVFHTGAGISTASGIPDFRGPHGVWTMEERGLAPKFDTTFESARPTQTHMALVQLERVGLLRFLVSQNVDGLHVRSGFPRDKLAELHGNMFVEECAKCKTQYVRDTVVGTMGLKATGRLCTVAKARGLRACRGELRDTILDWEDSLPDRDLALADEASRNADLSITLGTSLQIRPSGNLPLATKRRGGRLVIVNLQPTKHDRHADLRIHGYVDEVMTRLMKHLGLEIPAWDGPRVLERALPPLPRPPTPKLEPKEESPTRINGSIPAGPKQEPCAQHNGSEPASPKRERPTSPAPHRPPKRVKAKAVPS
Method: as §1, with “Distinct selectivity profiles were found for each of the inhibitors studied. Different concentrations of TA, TB, TH, or TM were pre-incubated with 1 μM of the sirtuin and 1 mM NAD in 20 mM Tris-HCl buffer (pH 8.0) with 1 mM dithiothreitol (DTT) at 37° C. for 30 minutes. Then 0.05” for “Then 0.05”

Sirt7 = Sirt7 (Homo sapiens (Human), UniProt Q9NRC8); assay: as above; type: biochemical; conditions: 1 μM sirtuin, 1 mM NAD, 30 min pre-incubation, 1 hour
Sequence of Sirt7 (Q9NRC8 whole entry): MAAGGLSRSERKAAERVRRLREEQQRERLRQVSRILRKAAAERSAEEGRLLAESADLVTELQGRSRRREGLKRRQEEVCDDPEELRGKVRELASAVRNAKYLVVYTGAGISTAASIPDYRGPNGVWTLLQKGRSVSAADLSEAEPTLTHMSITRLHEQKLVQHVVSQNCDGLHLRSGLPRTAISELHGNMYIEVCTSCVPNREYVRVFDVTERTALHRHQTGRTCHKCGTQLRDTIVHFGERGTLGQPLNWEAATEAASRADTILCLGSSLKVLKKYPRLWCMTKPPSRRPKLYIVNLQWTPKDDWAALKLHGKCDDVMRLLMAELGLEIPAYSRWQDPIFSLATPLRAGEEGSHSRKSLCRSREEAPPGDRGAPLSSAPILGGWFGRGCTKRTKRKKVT
Method: as §1, with “Distinct selectivity profiles were found for each of the inhibitors studied. Different concentrations of TA, TB, TH, or TM were pre-incubated with 1 μM of the sirtuin and 1 mM NAD in 20 mM Tris-HCl buffer (pH 8.0) with 1 mM dithiothreitol (DTT) at 37° C. for 30 minutes. Then 0.05” for “Then 0.05”

MCF10a normal cell line = assay: Low serum survival assay (normal cell proliferation); type: cell-based, human; conditions: 25 μM, FIG. 3(B), compared with MCF7
[1] = system: triple negative breast cancer cell line MDA-MB-231; assay: Soft agar assay (anchorage-independent growth); type: cell-based; conditions: 25 μM, FIGS. 4(A), 4(B)
Method: Next, the ability of these inhibiting compounds to inhibit cancer cell proliferation was tested. MCF-7 and MDA-MB-231 cells (ATCC) were both maintained in RPMI 1640 media (Invitrogen®) supplemented with 10% heat-inactivated fetal bovine serum (FBS). MCF-10A (ATCC) cells were maintained in Dulbecco's Modified Eagle Medium: Nutrient Mixture F-12 (DMEM/F12) (Invitrogen®) supplemented with 10% horse serum (Invitrogen®).
The 0.6% agarose type VII (Sigma), 10% FBS and 1% Penicillin-Streptomycin (Invitrogen®) were prepared in RPMI 1640 medium, and added to a six-well culture plate (2 mL/well). The plates were kept at […] for 20 minutes to allow the agarose to solidify. Plates were then incubated at 37° C. for 5 minutes before the addition of the 1 mL soft agar/cell solution prepared by mixing 0.3% agarose type VII, 10% FBS, 1% Penicillin-Streptomycin and ˜3000 cells in RPMI 1640 medium. Again, the plates were kept at 4° C. for 20 minutes to allow the agarose to solidify. After the plates were incubated at 37° C. for 7 days, 1 mL of RPMI 1640 medium with 0.3% agarose type VII, 10% FBS and 1% Penicillin-Streptomycin was added to the plates and the plates kept at 4° C. for 20 minutes to allow the agarose to solidify. After the plates were incubated at 37° C. for another 7 days, the colony formations were examined under a microscope. All the experiments were duplicated. […]

SMILES | pIC50 (Sirt1) | pIC50 (Sirt2) | pIC50 (Sirt3) | pIC50 (Sirt5) | pIC50 (Sirt6) | pIC50 (Sirt7) | inhibition of Sirt1 (in words) (Sirt1) | inhibition of Sirt2 (in words) (Sirt2; summary of Table 1) | effect on growth of MCF10a normal non-tumorigenic cells (MCF10a normal cell line) | inhibition of anchorage-independent growth of MDA-MB-231 [1]
CC(=S)NCCCCC(NC(=O)OCc1ccccc1)C(=O)Nc1ccccc1 (stereo not shown) [TA] | 4.52 | 3.98 | < 3.69 | < 3.69 | < 3.69 | < 3.69 | – | – | – | –
CCCC(=S)NCCCCC(NC(=O)OCc1ccccc1)C(=O)Nc1ccccc1 (stereo not shown) [TB] | 5.62 | 5.52 | – | < 3.69 | < 3.69 | < 3.69 | efficiently inhibit | – | – | –
CCCCCCC(=S)NCCCCC(NC(=O)OCc1ccccc1)C(=O)Nc1ccccc1 (stereo not shown) [TH] | 6.51 | 6.92 | – | < 3.69 | < 3.69 | < 3.69 | efficiently inhibit | efficiently inhibit | much less than that in the MCF7 cancer cell line; also recorded: can still grow | –
CCCCCCCCCCCCCC(=S)NCCCCC(NC(=O)OCc1ccccc1)C(=O)Nc1ccccc1 (stereo not shown) [TM] | – | – | – | < 3.69 | < 3.69 | < 3.69 | – | – | much less than that in the MCF7 cancer cell line; also recorded: can still grow | can inhibit the anchorage-independent growth
